This is an account of results in patent US20060013906A1, “Anti-helicobacter activity of celery seed extract” (priority 2002, published 2006).

Values after ≈ are worked out from the molar mass of the structure shown.

This experiment relates to H. pylori (strain 3339). Briefly: Broth dilution antimicrobial test, H. pylori strain 3339. To be noted: compounds from subfractions 6 and 10. The class given is cell-based, Helicobacter pylori. On the technique in general: Broth dilution looks for growth in wells or tubes with falling amounts of substance.

Regarding `CCCCC1OC(=O)c2ccccc21` (stereo not shown) [3-n Butyl phthalide, 3-n-butyl phthalide], it took 15.6 µg/mL (≈ 82.1 µM) to inhibit growth (MIC).
Regarding `CCCCC/C=C/C/C=C/CCCCCCCC(=O)O` [Linoleic acid, cis, cis - 9,12- Octadecadienoic acid], the MBC was above 125 µg/mL and the MIC turned out to be 62.5 µg/mL (≈ 223 µM).
As to `CCCCC1OC(=O)C2=C1CCC=C2` (stereo not shown) [sedanenolide, 3-n-butyl 4,5-dihydrolphthalide], the MBC was 62.5 µg/mL (≈ 325 µM) and the MIC is 31.2 µg/mL (≈ 163 µM).
With α and β-Eudesmol, the minimal bactericidal concentration (MBC) worked out at 125 µg/mL and inhibition of growth (MIC) required 15.6 µg/mL.

What is called MIC is the lowest concentration that inhibits growth of the organism. By MBC is commonly meant the smallest concentration meeting the test's criterion for killing. A lower MBC goes with more potent killing.
